Experimental data reported in ChEMBL document CHEMBL5356999, “Discovery and characterization of novel TRPML1 agonists” (Bioorg Med Chem Lett, 2024).

Key:
[1] = Protein binding in mouse brain; format: ADME, tissue-based
[2] = Stability in mouse hepatocytes assessed as half life; format: ADME, cell-based, Hepatocyte
[3] = Efflux ratio of apparent permeability in MDCK-MDR1 cells; format: ADME, cell-based, Canis lupus familiaris; settings: dog
[4] = Cmax in mouse at 10 mg/kg, po or 1 mg/kg, iv; format: ADME, organism-based; design: dose 10 mg/kg, route po; settings: in vivo
[5] = Volume of distribution at steady state in mouse at 10 mg/kg, po or 1 mg/kg, iv; format: ADME, organism-based; settings: in vivo
[6] = Stability in cynomolgus monkey hepatocytes assessed as half life; format: ADME, cell-based, Macaca fascicularis, Hepatocyte
[7] = Stability in human assessed as intrinsic clearance; format: ADME, cell-based, Hepatocyte; settings: hepatocytes
[8] = Clearance in mouse at 10 mg/kg, po or 1 mg/kg, iv; format: ADME, organism-based; settings: in vivo
[9] = Plasma protein binding in mouse; format: ADME, cell-free
[10] = Bioavailability in mouse at 10 mg/kg, po or 1 mg/kg, iv; format: ADME, organism-based; settings: in vivo
[11] = Stability in dog assessed as half life; format: ADME, cell-based, Canis lupus familiaris, Hepatocyte; settings: hepatocytes
[12] = Stability in cynomolgus monkey assessed as intrinsic clearance; format: ADME, cell-based, Macaca fascicularis, Hepatocyte; settings: hepatocytes
[13] = Plasma protein binding in human; format: ADME
[14] = Plasma protein binding in cynomolgus monkey; format: ADME, cell-free, Macaca fascicularis
[15] = Plasma protein binding in rat; format: ADME
[16] = Effect on TRPML1 knockout HEK293 cells; format: functional, cell-based, Homo sapiens
[17] = Stability in rat assessed as intrinsic clearance; format: ADME, cell-based, Hepatocyte; settings: hepatocytes
[18] = Apparent permeability across apical to basolateral side in MDCK-MDR1 cells; format: ADME, cell-based, Canis lupus familiaris; settings: dog
[19] = Stability in dog assessed as intrinsic clearance; format: ADME, cell-based, Canis lupus familiaris, Hepatocyte; settings: hepatocytes
[20] = Stability in mouse assessed as intrinsic clearance; format: ADME, cell-based, Hepatocyte; settings: hepatocytes
[21] = Stability in rat hepatocytes assessed as half life; format: ADME, cell-based, Hepatocyte
[22] = Stability in human hepatocytes assessed as half life; format: ADME, cell-based, Hepatocyte
[23] = Half life in mouse at 1 mg/kg, IV; format: ADME, organism-based; settings: in vivo
[24] = Unbound brain-to-plasma concentration ratio in mouse measured after 8 hrs; format: ADME, cell-free; settings: read-out: K(p,uu,brain)
[25] = Half life in mouse at 10 mg/kg, PO; format: ADME, organism-based; settings: in vivo

Row | SMILES | fu,brain [1] [%] | half-life [2] [min] | efflux ratio [3] | Cmax [4] [ng/mL] | Vdss [5] [L/kg] | half-life [6] [min] | clearance [7] [mL/min/kg] | CL [8] [mL/min/kg] | fu [9] [%] | bioavailability [10] [%] | half-life [11] [min] | clearance [12] [mL/min/kg] | fu [13] [%] | fu [14] [%] | fu [15] [%] | EC50 [16] [µM] | clearance [17] [mL/min/kg] | Papp A→B [18] [×10⁻⁶ cm/s] | clearance [19] [mL/min/kg] | clearance [20] [mL/min/kg] | other results
1 | CC(C)n1nnnc1[C@H](c1ccccc1F)N1CCN(c2cccc(Cl)c2)CC1 | 0.3 | 39.1 | 0.6 | 8.96 | 9.27 | 14.2 | 47.6 | 109 | 1 | 3.45 | 46.3 | 190 | 0.4 | 1 | 0.8 | > 48.8 | 332 | 10.7 | 103 | 209 | half-life [21]: 9.78 min; half-life [22]: 37 min; half-life [23]: 115 min; Kp uu at 8 h [24]: 0.55
2 | Clc1cccc(N2CCN(C3c4ccccc4CCCCn4nnnc43)CC2)c1 (stereo not drawn) | – | – | – | – | – | – | – | – | – | – | – | – | – | – | – | > 48.8 | – | – | – | – | –
3 | Clc1cccc(N2CCN(C3c4ccccc4CCCCCn4nnnc43)CC2)c1 (stereo not drawn) | – | – | – | – | – | – | – | – | – | – | – | – | – | – | – | > 48.8 | – | – | – | – | –
4 | Clc1cccc(N2CCN(C3c4ccccc4/C=C\CCCn4nnnc43)CC2)c1 (stereo not drawn) | – | – | – | – | – | – | – | – | – | – | – | – | – | – | – | > 48.8 | – | – | – | – | –
5 | CN(C)S(=O)(=O)c1ccc(S(=O)(=O)Nc2cccc(Cl)c2N2CCCCC2)cc1 | – | – | – | – | – | – | – | – | – | – | – | – | – | – | – | 1 | – | – | – | – | –
6 | CC(C)n1nnnc1[C@@H](c1ccccc1F)N1CCN(c2cccc(Cl)c2)CC1 | 0.3 | 48 | 0.4 | 36.2 | 9.01 | 39.1 | 104 | 103 | 0.5 | 12.4 | 57 | 69.1 | 0.6 | 0.7 | 0.4 | > 48.8 | 652 | 9.9 | 83.7 | 170 | half-life [25]: 104 min; half-life [21]: 4.97 min; half-life [22]: 16.9 min; half-life [23]: 131 min; Kp uu at 8 h [24]: 0.77
